Measured values taken from PMC10754118, “Lipophilic Nucleoside Triphosphate Prodrugs of Anti‐HIV Active Nucleoside Analogs as Potential Antiviral Compounds” (Advanced Science, 2023).
Read-outs that look alike come from different tables or passages of the source.

Key:
in vitro [1] = settings: for half-life at 0.86 mM: human, plasma
Procedure: First prepare 50 mM solutions of TriPPPro-compounds 10 and 20 in DMSO. […]
First prepare 3.0 mM hydrolysis solutions of Tri PPPro-compounds 10 and 20 in DMSO and H2O: 21 µL stock solution (50 mM in DMSO) and 154 µL DMSO, and 175 µL Milli-Q water. Three-twelve different samples (20 […]
The calculation of t1/2 was obtained using Origin again.
(§1) Part 7. Hydrolysis of TriPPPro-compounds 10 and 20 in human plasma.
µL 3.0 mM hydrolysis solutions) were prepared in 2 mL Eppendorf® vials. Then, aliquots of 50 µL human Plasma (Heparin or Citrate) were added to these samples and the reaction was started. The samples were […]
incubated at 37 °C in a thermomixer for different time periods. The reaction was stopped by addition of 150 µL MeOH and kept on ice for 5 min. After centrifugation at 14,000 rpm for 22 min, the supernatants were filtered (Chromafil RC-20/15 MS, 0.2 μm) and stored in liquid nitrogen. When testing, aliquots of 25 0r 30 µL (injection volume) were analyzed by analytical HPLC (HPLC Method). The calculation of t1/2 was obtained using Origin […]
Part 8. Preparation of cell extracts and human plasma. […]

[2] = Chemical hydrolysis in phosphate buffer saline (PBS, pH 7.3); format: physicochemical; settings: PBS pH 7.3, 37 °C, read-out: PBS pH 7.3 t 1/2 (converted)
Procedure: (§2) Part 4. Chemical Hydrolysis of TriPPPro-compounds 10 and 20.
Second prepare 1.9 mM hydrolysis […]
(§3) Then, aliquots of 50 µL human

in vitro [3] = settings: human
Procedure: The hydrolysis properties of TriPPPro‐compounds 10 and 20 were evaluated in phosphate buffer saline (PBS, pH 7.3), pig liver esterase (PLE) or CEM/0 cell extracts. In both cases, hydrolysis products were analyzed by means of analytical RP18‐HPLC and the hydrolysis half‐lives (Table 1 , t1/2 ) of TriPPPro‐compounds 10 and 20 were calculated after complete consumption of the starting materials.
The hydrolysis of TriPPPro‐compounds 10 and 20 was carried out with CEM/0 cell extracts as well. […]
Part 6. Enzyme-Catalyzed Hydrolysis of TriPPPro-compounds 10 and 20 in CEM Cell […]
First prepare 3.0 mM hydrolysis solutions of Tri PPPro-compounds 10 and 20 in DMSO and H2O: 21 µL stock solution (50 mM in DMSO) and 154 µL DMSO, and 175 µL Milli-Q water. Three-twelve different samples (20 µL 3.0 mM hydrolysis solutions) were prepared in 2 mL Eppendorf® vials. Then, aliquots of 50 µL human CEM cell extracts were added to these samples and the reaction was started. The samples were incubated at 37 °C in a thermomixer for different time periods. The reaction was stopped by addition of 150 µL MeOH and kept on ice for 5 min. After centrifugation at 14,000 rpm for 12 min, the supernatants were filtered (Chromafil RC-20/15 MS, 0.2 μm) and stored in liquid nitrogen. When testing, aliquots of 60 µL (injection volume) were analyzed by analytical HPLC (HPLC Method). The calculation of t1/2 was obtained using Origin again.
as §1
µL 3.0 mM hydrolysis solutions) were prepared in 2 mL Eppendorf® vials.

pig liver esterase (PLE) = test: Hydrolysis with pig liver esterase (PLE); format: in vitro ADME; settings: pig liver esterase (PLE) in PBS, PLE in PBS pH 7.3, 37 °C, read-out: PLE t 1/2 (converted)
Text: Next, TriPPPro‐compounds 10 and 20 were exposed to PLE in PBS (pH 7.3) and the half‐lives of TriPPPro‐compounds 10 and 20 are listed in Table 1. […] In contrast, the cleavage of the AB (C4) masking group in TriPPPro‐compounds 10by–hy and 10bz–hz was triggered by ester hydrolysis and yielded the corresponding γ‐alkylated nucleoside triphosphate derivatives 20 (Figure 3B,D) and 21 (Figures S17 and S18, Supporting Information), respectively. […] Moreover, a very small amount of NDPs was observed, probably due to a reaction involving a nucleophilic reaction at the γ‐phosphate or γ‐phosphonate moiety (pathways d and f, Scheme 5). […]
as §2
Second prepare 1.9 mM hydrolysis
Part 5. Hydrolysis of TriPPPro-compounds 10 and 20 with PLE .
Second, 125 µL DMSO and 833 µL
62.5 µL of PLE solution in PBS (100
mixture was stored in the freezer (- 30 °C).
by analytical HPLC (HPLC Method).
similar to that for the chemical hydrolysis studies. […]
as §3

HIV‐1 [HE] = test: Anti-HIV activity, HIV-1 in wild-type CEM/0 cells; format: cell-based; settings: Human immunodeficiency virus 1, CCRF-CEM, read-out: Antiviral activity CEM/0 HIV‐1 [HE] EC50
HIV‐2 [ROD] = test: Anti-HIV activity, HIV-2 in wild-type CEM/0 cells; format: cell-based; settings: Human immunodeficiency virus 2, CCRF-CEM, read-out: Antiviral activity CEM/0 HIV‐2 [ROD] EC50
Procedure: (§4) Part 9. Anti-HIV activity assay.
(§5) The produce was used as previously reported. 5 Inhibition of HIV-1(IIIB)- and HIV-2(ROD)-induced cytopathogenicity in wild-type CEM/0 and thymidine kinase-deficient CEM/TK– cell cultures was measured in […]
(§6) containing appropriate dilutions of the test compounds. After 4−5 days of incubation at 37 °C in a CO2-controlled humidified atmosphere, CEM giant (syncytium) cell formation was examined microscopically. The […]
(§7) giant cell formation by 50%.
(§8) Part 10. Primer-extension assays. […]

HIV‐2 [ROD)] = test: Anti-HIV activity, HIV-2 in thymidine kinase-deficient CEM/TK^− cells; format: cell-based
Procedure: as §4, §5, §6, §7, §8

in vitro [4] = settings: human, CEM/0 cells (wild-type CD4+ T-cells)
Procedure: All TriPPPro‐compounds 10 and 20, as well as their parent nucleosides and the corresponding NTPs, were evaluated for their antiviral activity (expressed as EC50 values) against HIV‐1 (wild‐type CEM/0 cells) and HIV‐2 (wild‐type CEM/0 cells and thymidine kinase‐deficient (CEM/TK^−) cells) with concomitant determination of cytotoxicity in the same cell line (Table 3 ).

[5] = wild-type CEM/0 cells, mean ±SD n = 2–3
[6] = Human immunodeficiency virus 2, CEM-TK(-), thymidine kinase-deficient CEM/TK^− cells, mean ±SD n = 2–3; read-out: Antiviral activity CEM/TK^− HIV‐2 [ROD)] EC50

SMILES	Plasma (Citrate) t 1/2 (in vitro [1]; citrate-stabilized human plasma, 37 °C) [h]	Plasma (Heparin) t 1/2 (in vitro [1]; heparin-stabilized human plasma, 37 °C) [h]	t 1/2 in human plasma (over heparin and citrate plasma) (in vitro [1]; human plasma 37 °C, heparin and citrate taken together) [h]	half-life at 1.9 mM [2] [days]	half-life at 0.86 mM (in vitro [3]) [h]	half-life at 0.45 mM (pig liver esterase (PLE)) [h]	EC50 (HIV‐1 [HE]; [5]) [µM]	EC50 (HIV‐2 [ROD]; [5]) [µM]	EC50 (HIV‐2 [ROD)]; [6]) [µM]	CC50 (in vitro [4]) [µM]	EC50 (HIV‐1 [HE]) [µM]	EC50 (HIV‐2 [ROD]) [µM]	EC50 (HIV‐2 [ROD)]; Human immunodeficiency virus 2, CEM-TK(-), read-out: Antiviral activity CEM/TK^− HIV‐2 [ROD)] EC50) [µM]	half-life at 0.86 mM (in vitro [1]; Plasma (Citrate) t 1/2) [h]	half-life at 0.86 mM (in vitro [1]; Plasma (Heparin) t 1/2) [h]	half-life at 0.86 mM (in vitro [1]; t 1/2 in human plasma (over heparin and citrate plasma)) [h]
Cc1cn([C@H]2C[C@H](N=[N+]=[N-])[C@@H](COP(=O)(O)O)O2)c(=O)[nH]c1=O [AZTMP, reference compound]	4.5	2.0	2.0 to 4.5	–	–	–	–	–	–	–	–	–	–	–	–	–
CCCCCCCCCCCCCCCCCCOP(=O)(OCc1ccc(OC(=O)CCCC)cc1)OP(=O)(O)OP(=O)(O)OC[C@@H]1O[C@H](n2cc(F)c(N)nc2=O)CS1 (some centres unmarked) [10cy, γ‐(AB‐C4;alkyl‐C18)‐FTCTP]	–	–	–	10.5	3.4	0.24	0.14 ± 0.065	0.18 ± 0.15	0.062 ± 0.059	51.9	–	–	–	–	–	–
CCCCCCCCCCCCCCCCCCP(=O)(OCc1ccc(OC(=O)CCCC)cc1)OP(=O)(O)OP(=O)(O)OC[C@H]1O[C@@H](n2cc(Cl)c(=O)[nH]c2=O)C[C@@H]1F (some centres unmarked) [10dz]	–	–	–	27.9	> 10	1.3	2.02 ± 0.8	0.51 ± 0.14	4.66 ± 3.42	54.9	–	–	–	–	–	–
CCCCCCCCCCCCCCCCCCOP(=O)(OCCCC)OP(=O)(O)OP(=O)(O)OC[C@@H]1O[C@H](n2cc(F)c(N)nc2=O)CS1 (some centres unmarked) [10cv, γ‐(C4;C18)‐FTCTP]	–	–	–	> 83.3	> 10	> 150	0.039 ± 0.035	0.074 ± 0.027	0.0032	51.2 ± 7.7	–	–	–	–	–	–
CCCCCCCCCCCCCCCCCCOP(=O)(O)OP(=O)(O)OP(=O)(O)OC[C@@H]1O[C@H](n2cc(F)c(N)nc2=O)CS1 [20c, γ‐C18‐FTCTP]	–	–	–	> 83.3	> 30	> 150	0.35 ± 0.25	0.22 ± 0.02	0.051 ± 0.069	63.4 ± 13.7	–	–	–	–	–	–
CCCCCCCCCCCCCCCCCCOP(=O)(OCc1ccc(OC(=O)CCCC)cc1)OP(=O)(O)OP(=O)(O)OC[C@H]1O[C@@H](n2cc(Cl)c(=O)[nH]c2=O)C[C@@H]1F (some centres unmarked) [10dy]	–	–	–	18.5	2.9	0.19	7.32 ± 2.28	1.95 ± 0.86	2.53 ± 1.38	52.1	–	–	–	–	–	–
CCCCCCCCCCCCCCCCCCOP(=O)(O)OP(=O)(O)OP(=O)(O)OC[C@H]1O[C@@H](n2ccc(=O)[nH]c2=O)C[C@@H]1F [20e, γ‐C18‐FddUTP]	–	–	–	> 83.3	> 20	> 150	0.092 ± 0.082	0.39 ± 0.3	3.56 ± 1.88	63.7 ± 13.6	–	–	–	–	–	–
CCCCCCCCCCCCCCCCCCOP(=O)(OCCCC)OP(=O)(O)OP(=O)(O)OC[C@H]1O[C@@H](n2cc(Cl)c(=O)[nH]c2=O)C[C@@H]1F (some centres unmarked) [10dv]	–	–	–	> 83.3	> 20	> 150	2.28 ± 0.68	4.81 ± 4.61	> 20	50.1 ± 10.2	–	–	–	–	–	–
CCCCCCCCCCCCCCCCCCOP(=O)(OCc1ccc(OC(=O)CCCC)cc1)OP(=O)(O)OP(=O)(O)OC[C@@H]1C=C[C@H](n2cnc3c(NC4CC4)nc(N)nc32)C1 (some centres unmarked) [10hy]	–	–	–	1.92	1.3	0.97	0.96 ± 0.49	0.29 ± 0.16	0.21 ± 0.11	> 100	–	–	–	–	–	–
CCCCCCCCCCCCCCCCCCP(=O)(OCCCC)OP(=O)(O)OP(=O)(O)OC[C@H]1O[C@@H](n2cc(C)c(=O)[nH]c2=O)C[C@@H]1N=[N+]=[N-] (some centres unmarked) [10bx]	–	–	–	> 62.5	> 20	> 150	–	–	–	> 100	0.12 ± 0.088	0.031 ± 0.005	1.19 ± 0.79	–	–	–
CCCCCCCCCCCCCCCCCCOP(=O)(OCc1ccc(OC(=O)CCCC)cc1)OP(=O)(O)OP(=O)(O)OC[C@H]1O[C@@H](n2cc(/C=C/Br)c(=O)[nH]c2=O)C[C@@H]1O (some centres unmarked) [10gy]	–	–	–	25	–	0.3	8.57 ± 5.02	2.87 ± 1.72	11.1 ± 1.34	52.1	–	–	–	–	–	–
Cc1cn([C@H]2C[C@H](N=[N+]=[N-])[C@@H](COP(=O)(O)OP(=O)(O)O)O2)c(=O)[nH]c1=O [AZTDP, reference compound]	–	–	–	–	–	–	–	–	–	–	–	–	–	6.4	2.8	2.8 to 6.4
CCCCCCCCCCCCCCCCCCP(=O)(OCc1ccc(OC(=O)CCCC)cc1)OP(=O)(O)OP(=O)(O)OC[C@H]1O[C@@H](n2cc(C)c(=O)[nH]c2=O)C[C@@H]1F (some centres unmarked) [10ez]	–	–	–	2.12	–	–	0.46 ± 0.36	0.46 ± 0.4	1.83 ± 1.65	45.3 ± 16.7	–	–	–	–	–	–
